Source: ChEMBL document CHEMBL1201862, “PubChem BioAssay data set” (2004)
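In this assay, cells in 96-well plates receive the compound at five concentrations for 48 hours. Endpoints are linearly interpolated between the surrounding concentrations. GI50 = concentration required for 50% inhibition of growth.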 Active and inactive are the calls of the source. No stated cut-off is given here; in the data, active = GI50 up to about 1.1 µM and inactive = higher.

Columns and labels:
Assay in all cases: inhibition of tumour cell growth, NCI panel, 48 h
A549 = system: A549
OVCAR-3 = system: OVCAR-3
DLD-1 = system: DLD-1
MOLT-4 = system: MOLT-4
ACHN = system: ACHN
SN12C = system: SN12C
KM-20L2 = system: KM-20L2
XF498 = system: XF498
NCI-H460 = system: NCI-H460
SW-620 = system: SW-620
M14 = system: M14
SF-295 = system: SF-295
RPMI-8226 = system: RPMI-8226
M19-MEL = system: M19-MEL
SNB-75 = system: SNB-75
SK-MEL-2 = system: SK-MEL-2
HOP-62 = system: HOP-62
A498 = system: A498
OVCAR-8 = system: OVCAR-8
HOP-18 = system: HOP-18
K562 = system: K562
HT-29 = system: HT-29
COLO 205 = system: COLO 205
LOX IMVI = system: LOX IMVI
SF-268 = system: SF-268
UACC-257 = system: UACC-257
SNB-19 = system: SNB-19
NCI-H522 = system: NCI-H522
EKVX = system: EKVX
CAKI-1 = system: CAKI-1
OVCAR-4 = system: OVCAR-4
HCC 2998 = system: HCC 2998
NCI-H226 = system: NCI-H226
SK-OV-3 = system: SK-OV-3
Malme-3M = system: Malme-3M
SF-539 = system: SF-539
IGROV-1 = system: IGROV-1
DMS-114 = system: DMS-114
HCT-15 = system: HCT-15
HL-60 = system: HL-60
LXFL 529 = system: LXFL 529
UACC-62 = system: UACC-62
CCRF-CEM = system: CCRF-CEM
HCT-116 = system: HCT-116
OVCAR-5 = system: OVCAR-5
SNB-78 = system: SNB-78
UO-31 = system: UO-31
KM12 = system: KM12
SR = system: SR
U-251 = system: U-251
RXF 393 = system: RXF 393
786-0 = system: 786-0
TK-10 = system: TK-10
DMS-273 = system: DMS-273
SK-MEL-28 = system: SK-MEL-28
NCI-H23 = system: NCI-H23
HOP-92 = system: HOP-92
SK-MEL-5 = system: SK-MEL-5

With `CC(C)N/C(N)=N/C#N` the GI50 (A549) was > 100 µM (inactive), the GI50 (OVCAR-3) was > 100 µM (inactive) and the GI50 (DLD-1) was > 100 µM (inactive). For the same compound, the GI50 (MOLT-4) was > 100 µM (inactive), the GI50 (ACHN) was > 100 µM (inactive) and the GI50 (SN12C) was > 100 µM (inactive). For the same compound, the GI50 (KM-20L2) was > 100 µM (inactive), the GI50 (XF498) was > 100 µM (inactive) and the GI50 (NCI-H460) was > 100 µM (inactive). For the same compound, the GI50 (SW-620) was > 100 µM (inactive), the GI50 (M14) was > 100 µM (inactive) and the GI50 (SF-295) was > 100 µM (inactive). The GI50 (RPMI-8226) was > 100 µM (inactive), the GI50 (M19-MEL) was > 100 µM (inactive) and the GI50 (SNB-75) was > 100 µM (inactive). The GI50 (SK-MEL-2) was > 100 µM (inactive), the GI50 (HOP-62) was > 100 µM (inactive) and the GI50 (A498) was > 100 µM (inactive). For the same compound, the GI50 (OVCAR-8) was > 100 µM (inactive), the GI50 (HOP-18) was > 100 µM (inactive) and the GI50 (K562) was > 100 µM (inactive). The GI50 (HT-29) was > 100 µM (inactive), the GI50 (COLO 205) was > 100 µM (inactive) and the GI50 (LOX IMVI) was > 100 µM (inactive). For the same compound, the GI50 (SF-268) was > 100 µM (inactive), the GI50 (UACC-257) was > 100 µM (inactive) and the GI50 (SNB-19) was > 100 µM (inactive). For the same compound, the GI50 (NCI-H522) was > 100 µM (inactive), the GI50 (EKVX) was > 100 µM (inactive) and the GI50 (CAKI-1) was > 100 µM (inactive). The GI50 (OVCAR-4) was > 100 µM (inactive), the GI50 (HCC 2998) was > 100 µM (inactive) and the GI50 (NCI-H226) was > 100 µM (inactive). For the same compound, the GI50 (SK-OV-3) was > 100 µM (inactive), the GI50 (Malme-3M) was > 100 µM (inactive) and the GI50 (SF-539) was > 100 µM (inactive). For the same compound, the GI50 (IGROV-1) was > 100 µM (inactive), the GI50 (DMS-114) was > 100 µM (inactive) and the GI50 (HCT-15) was > 100 µM. The GI50 (HL-60) was > 100 µM (inactive), the GI50 (LXFL 529) was > 100 µM (inactive) and the GI50 (UACC-62) was > 100 µM (inactive). For the same compound, the GI50 (CCRF-CEM) was > 100 µM (inactive), the GI50 (HCT-116) was > 100 µM (inactive) and the GI50 (OVCAR-5) was > 100 µM (inactive). The GI50 (SNB-78) was > 100 µM (inactive), the GI50 (UO-31) was > 100 µM (inactive) and the GI50 (KM12) was > 100 µM (inactive).

With `CC1(C)CC(=O)C2=C(C1)S/C(=C1/SC3=C(S1)C(=O)CC(C)(C)C3)S2` the GI50 (A549) was > 251 µM (inactive), the GI50 (OVCAR-3) was > 251 µM (inactive) and the GI50 (DLD-1) was > 251 µM (inactive). The GI50 (MOLT-4) was > 251 µM (inactive), the GI50 (ACHN) was > 251 µM (inactive) and the GI50 (SR) was > 251 µM (inactive). The GI50 (SN12C) was > 251 µM (inactive), the GI50 (KM-20L2) was > 251 µM (inactive) and the GI50 (U-251) was > 251 µM (inactive). For the same compound, the GI50 (XF498) was > 251 µM (inactive), the GI50 (NCI-H460) was > 251 µM (inactive) and the GI50 (SW-620) was > 251 µM (inactive). For the same compound, the GI50 (M14) was > 251 µM (inactive), the GI50 (RXF 393) was > 251 µM (inactive) and the GI50 (SF-295) was > 251 µM (inactive). For the same compound, the GI50 (RPMI-8226) was > 251 µM (inactive), the GI50 (M19-MEL) was > 251 µM (inactive) and the GI50 (SNB-75) was > 251 µM (inactive). For the same compound, the GI50 (SK-MEL-2) was > 251 µM (inactive), the GI50 (HOP-62) was > 251 µM (inactive) and the GI50 (A498) was > 251 µM (inactive). For the same compound, the GI50 (OVCAR-8) was > 251 µM (inactive), the GI50 (HOP-18) was > 251 µM (inactive) and the GI50 (K562) was > 251 µM (inactive). The GI50 (HT-29) was > 251 µM (inactive), the GI50 (COLO 205) was > 251 µM (inactive) and the GI50 (LOX IMVI) was > 251 µM (inactive). For the same compound, the GI50 (SF-268) was > 251 µM (inactive), the GI50 (UACC-257) was > 251 µM (inactive) and the GI50 (SNB-19) was > 251 µM (inactive). The GI50 (NCI-H522) was > 251 µM (inactive), the GI50 (EKVX) was > 251 µM (inactive) and the GI50 (HCC 2998) was > 251 µM (inactive). For the same compound, the GI50 (SK-OV-3) was > 251 µM (inactive), the GI50 (Malme-3M) was > 251 µM (inactive) and the GI50 (SF-539) was > 251 µM (inactive). The GI50 (IGROV-1) was > 251 µM (inactive), the GI50 (DMS-114) was > 251 µM (inactive) and the GI50 (786-0) was > 251 µM (inactive). The GI50 (TK-10) was > 251 µM (inactive), the GI50 (HCT-15) was > 251 µM and the GI50 (DMS-273) was > 251 µM (inactive). The GI50 (HL-60) was > 251 µM (inactive), the GI50 (LXFL 529) was > 251 µM (inactive) and the GI50 (UACC-62) was > 251 µM (inactive). For the same compound, the GI50 (CCRF-CEM) was > 251 µM (inactive), the GI50 (HCT-116) was > 251 µM (inactive) and the GI50 (SK-MEL-28) was > 251 µM (inactive). For the same compound, the GI50 (NCI-H23) was > 251 µM (inactive), the GI50 (SNB-78) was > 251 µM (inactive) and the GI50 (UO-31) was > 251 µM (inactive). For the same compound, the GI50 (HOP-92) was > 251 µM (inactive) and the GI50 (KM12) was > 251 µM (inactive).

`Cn1c(=O)c(C(=O)NC(=O)NCCCCCOC(=O)CCCCCCCCCCC(=O)OCCCCCNC(=O)NC(=O)c2cn(Cc3ccccc3)c(=O)n(C)c2=O)cn(Cc2ccccc2)c1=O` was tested, and the GI50 (A549) was > 100 µM (inactive), the GI50 (OVCAR-3) was > 100 µM (inactive) and the GI50 (DLD-1) was > 100 µM (inactive). For the same compound, the GI50 (ACHN) was > 100 µM (inactive), the GI50 (SN12C) was > 100 µM (inactive) and the GI50 (KM-20L2) was > 100 µM (inactive). The GI50 (U-251) was > 100 µM (inactive), the GI50 (XF498) was > 100 µM (inactive) and the GI50 (NCI-H460) was > 100 µM (inactive). For the same compound, the GI50 (SW-620) was > 100 µM (inactive), the GI50 (M14) was > 100 µM (inactive) and the GI50 (RXF 393) was > 100 µM (inactive). The GI50 (RPMI-8226) was > 100 µM (inactive), the GI50 (M19-MEL) was > 100 µM (inactive) and the GI50 (SNB-75) was > 100 µM (inactive). For the same compound, the GI50 (SK-MEL-2) was > 100 µM (inactive), the GI50 (HOP-62) was > 100 µM (inactive) and the GI50 (A498) was > 100 µM (inactive). The GI50 (OVCAR-8) was > 100 µM (inactive), the GI50 (HOP-18) was > 100 µM (inactive) and the GI50 (K562) was > 100 µM (inactive). For the same compound, the GI50 (HT-29) was > 100 µM (inactive), the GI50 (COLO 205) was > 100 µM (inactive) and the GI50 (LOX IMVI) was > 100 µM (inactive). For the same compound, the GI50 (SF-268) was > 100 µM (inactive), the GI50 (UACC-257) was > 100 µM (inactive) and the GI50 (SNB-19) was > 100 µM (inactive). For the same compound, the GI50 (NCI-H522) was > 100 µM (inactive), the GI50 (EKVX) was > 100 µM (inactive) and the GI50 (CAKI-1) was > 100 µM (inactive). For the same compound, the GI50 (OVCAR-4) was > 100 µM (inactive), the GI50 (HCC 2998) was > 100 µM (inactive) and the GI50 (SK-MEL-5) was > 100 µM (inactive). The GI50 (NCI-H226) was > 100 µM (inactive), the GI50 (SK-OV-3) was > 100 µM (inactive) and the GI50 (Malme-3M) was > 100 µM (inactive). The GI50 (SF-539) was > 100 µM (inactive), the GI50 (IGROV-1) was > 100 µM (inactive) and the GI50 (DMS-114) was > 100 µM (inactive). The GI50 (786-0) was > 100 µM (inactive), the GI50 (TK-10) was > 100 µM (inactive) and the GI50 (HCT-15) was > 100 µM. The GI50 (DMS-273) was > 100 µM (inactive), the GI50 (HL-60) was > 100 µM (inactive) and the GI50 (LXFL 529) was > 100 µM (inactive). For the same compound, the GI50 (UACC-62) was > 100 µM (inactive), the GI50 (CCRF-CEM) was > 100 µM (inactive) and the GI50 (HCT-116) was > 100 µM (inactive). For the same compound, the GI50 (SK-MEL-28) was > 100 µM (inactive), the GI50 (NCI-H23) was > 100 µM (inactive) and the GI50 (OVCAR-5) was > 100 µM (inactive). The GI50 (SNB-78) was > 100 µM (inactive), the GI50 (UO-31) was > 100 µM (inactive) and the GI50 (HOP-92) was 71.4 µM (inactive). The GI50 (KM12) was > 100 µM (inactive).
